From US11053204B2, “Pyrimidinyloxy benzene derivatives as herbicides” (FMC Corporation, priority 2015, dated 2021)

Tests used:
Experiment in all cases: Test C preemergence, plant response rating
Type in all cases: in vivo
Conditions in all cases: Preemergence
[1] = tested on: blackgrass (Alopecurus myosuroides)
Summary of the method: (§1)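 Preemergence: seeds sown in loam–sand blend or silt loam and sprayed with test chemicals in a non-phytotoxic surfactant-containing solvent. Postemergence: potted plants at 2–18 cm (1–4-leaf stage) sprayed with the same formulation. After 13–15 d in greenhouse, visual rating versus controls on 0 (no effect) to 100 (complete control) scale.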

corn (Zea mays) = tested on: corn (Zea mays)
Summary of the method: as §1

[2] = tested on: crabgrass, large (large crabgrass, Digitaria sanguinalis)
Summary of the method: as §1

[3] = tested on: foxtail, giant (giant foxtail, Setaria faberii)
Summary of the method: as §1

[4] = tested on: lambsquarters (Chenopodium album)
Summary of the method: as §1

[5] = tested on: morningglory (Ipomoea coccinea)
Summary of the method: as §1

[6] = tested on: nutsedge, yellow (yellow nutsedge, Cyperus esculentus)
Summary of the method: as §1

[7] = tested on: oilseed rape (Brassica napus)
Summary of the method: as §1

[8] = tested on: ryegrass, Italian (Italian ryegrass, Lolium multiflorum)
Summary of the method: as §1

soybean (Glycine max) = tested on: soybean (Glycine max)
Summary of the method: as §1

[9] = tested on: velvetleaf (Abutilon theophrasti)
Summary of the method: as §1

[10] = tested on: waterhemp (common waterhemp, Amaranthus rudis)
Summary of the method: as §1

[11] = tested on: wheat (winter wheat, Triticum aestivum)
Summary of the method: as §1

C=C(Br)COC(=O)c1c(Br)cccc1Oc1ncc(Cl)cn1 [Compound 61]
Plant response rating, Blackgrass ([1]; 62 g ai/ha, scale of 0 to 100): 0
Plant response rating, Blackgrass ([1]; 125 g ai/ha, scale of 0 to 100): 5
Plant response rating, Blackgrass ([1]; 16 g ai/ha, scale 0 to 100): 0
Plant response rating, Blackgrass ([1]; 31 g ai/ha, scale 0 to 100): 0
Plant response rating, Corn (corn (Zea mays); 62 g ai/ha, scale of 0 to 100): 10
Plant response rating, Corn (corn (Zea mays); 125 g ai/ha, scale of 0 to 100): 0
Plant response rating, Corn (corn (Zea mays); 16 g ai/ha, scale 0 to 100): 0
Plant response rating, Corn (corn (Zea mays); 31 g ai/ha, scale 0 to 100): 0
Plant response rating, Crabgrass, Large ([2]; 62 g ai/ha, scale of 0 to 100): 75
Plant response rating, Crabgrass, Large ([2]; 125 g ai/ha, scale of 0 to 100): 90
Plant response rating, Crabgrass, Large ([2]; 16 g ai/ha, scale 0 to 100): 0
Plant response rating, Crabgrass, Large ([2]; 31 g ai/ha, scale 0 to 100): 10
Plant response rating, Foxtail, Giant ([3]; 62 g ai/ha, scale of 0 to 100): 60
Plant response rating, Foxtail, Giant ([3]; 125 g ai/ha, scale of 0 to 100): 65
Plant response rating, Foxtail, Giant ([3]; 16 g ai/ha, scale 0 to 100): 0
Plant response rating, Foxtail, Giant ([3]; 31 g ai/ha, scale 0 to 100): 50
Plant response rating, Lambsquarters ([4]; 125 g ai/ha, scale of 0 to 100): 60
Plant response rating, Lambsquarters ([4]; 16 g ai/ha, scale 0 to 100): 5
Plant response rating, Lambsquarters ([4]; 31 g ai/ha, scale 0 to 100): 15
Plant response rating, Lambsquarters ([4]; 62 g ai/ha, scale 0 to 100): 50
Plant response rating, Morningglory ([5]; 125 g ai/ha, scale of 0 to 100): 0
Plant response rating, Morningglory ([5]; 16 g ai/ha, scale 0 to 100): 0
Plant response rating, Morningglory ([5]; 31 g ai/ha, scale 0 to 100): 0
Plant response rating, Morningglory ([5]; 62 g ai/ha, scale 0 to 100): 0
Plant response rating, Nutsedge, Yellow ([6]; 125 g ai/ha, scale of 0 to 100): 0
Plant response rating, Nutsedge, Yellow ([6]; 16 g ai/ha, scale 0 to 100): 0
Plant response rating, Nutsedge, Yellow ([6]; 31 g ai/ha, scale 0 to 100): 0
Plant response rating, Nutsedge, Yellow ([6]; 62 g ai/ha, scale 0 to 100): 0
Plant response rating, Oilseed Rape ([7]; 125 g ai/ha, scale of 0 to 100): 10
Plant response rating, Oilseed Rape ([7]; 16 g ai/ha, scale 0 to 100): 0
Plant response rating, Oilseed Rape ([7]; 31 g ai/ha, scale 0 to 100): 0
Plant response rating, Oilseed Rape ([7]; 62 g ai/ha, scale 0 to 100): 0
Plant response rating, Ryegrass, Italian ([8]; 125 g ai/ha, scale of 0 to 100): 5
Plant response rating, Ryegrass, Italian ([8]; 16 g ai/ha, scale 0 to 100): 0
Plant response rating, Ryegrass, Italian ([8]; 31 g ai/ha, scale 0 to 100): 0
Plant response rating, Ryegrass, Italian ([8]; 62 g ai/ha, scale 0 to 100): 0
Plant response rating, Soybean (soybean (Glycine max); 125 g ai/ha, scale of 0 to 100): 10
Plant response rating, Soybean (soybean (Glycine max); 31 g ai/ha, scale 0 to 100): 20
Plant response rating, Soybean (soybean (Glycine max); 62 g ai/ha, scale 0 to 100): 20
Plant response rating, Velvetleaf ([9]; 125 g ai/ha, scale of 0 to 100): 5
Plant response rating, Velvetleaf ([9]; 16 g ai/ha, scale 0 to 100): 0
Plant response rating, Velvetleaf ([9]; 31 g ai/ha, scale 0 to 100): 5
Plant response rating, Velvetleaf ([9]; 62 g ai/ha, scale 0 to 100): 5
Plant response rating, Waterhemp ([10]; 125 g ai/ha, scale of 0 to 100): 100
Plant response rating, Waterhemp ([10]; 16 g ai/ha, scale 0 to 100): 50
Plant response rating, Waterhemp ([10]; 31 g ai/ha, scale 0 to 100): 75
Plant response rating, Waterhemp ([10]; 62 g ai/ha, scale 0 to 100): 90
Plant response rating, Wheat ([11]; 125 g ai/ha, scale of 0 to 100): 10
Plant response rating, Wheat ([11]; 16 g ai/ha, scale 0 to 100): 0
Plant response rating, Wheat ([11]; 31 g ai/ha, scale 0 to 100): 0
Plant response rating, Wheat ([11]; 62 g ai/ha, scale 0 to 100): 5
